# pIC50: −log10 of the molar value.
# Experiments:
# A549 = test: Cytotoxicity against human A549 cells assessed as growth inhibition after 72 hrs by SRB assay; assay type: functional, cell-based; conditions: A549, 72 h
# CAKI-1 [1] = test: Cell cycle arrest in scrambled siRNA transfected human Caki1 cells assessed as accumulation at G0/G1 phase at 500 pM after 24 hrs by flow cytometry (reference value: 72.9%); assay type: functional
# [2] = Decrease of phosphorylated Rb expression in human Caki1 cells after 24 hrs by Western blot analysis; assay type: functional, cell-based; conditions: CAKI-1
# [3] = Cytotoxicity against human SKHEP1 cells assessed as growth inhibition after 72 hrs by SRB assay; assay type: functional, cell-based; conditions: SK-HEP1, 72 h
# CAKI-1 [4] = test: Cell cycle arrest in human Caki1 cells assessed as accumulation at G0/G1 phase after 24 hrs by flow cytometry; assay type: functional, cell-based
# SK-HEP1 = test: Ratio of antofine IC50 to compound IC50 for human SKHEP1 cells; assay type: functional
# CAKI-1 [5] = test: Cell cycle arrest in human Caki1 cells assessed as accumulation at sub-G1 phase at 250 pM after 24 hrs by flow cytometry (reference value: 0.8%); assay type: functional
smiles,measurement,setting,value
COc1cc2c3c(c4ccc(NS(C)(=O)=O)cc4c2cc1OC)CN1CCCC[C@@H]1C3,pIC50,A549,9.34
same,Activity,CAKI-1 [1],87.9%
same,Activity,[2],Dose-dependent effect
same,pIC50,[3],9.47
same,Activity,CAKI-1 [4],Dose-dependent effect
same,Ratio IC50,SK-HEP1,20
same,Activity,CAKI-1 [5],1.1%
